Legend:
[1] = Body weight during therapeutic study (Alzet minipumps); assay type: in vivo, mice; conditions: 1 mg/kg subcutaneous minipump, 7 weeks after pump implantation
Procedure: Alzet pumps model 1004 (Alzet, USA), with a rate of 0.11 µl/hour and 28 days effective compound delivery was used. MK-28 compound was dissolved in 1:1 DMSO/PEG400 and prepared to delivery subcutaneously 6 mg/kg MK-28 for toxicity studies (n = 8) or 1 mg/kg for therapeutic evaluation in R6/2 mice (n = 72). For toxicity studies mice receiving six times the therapeutic dose of MK-28 or vehicle were weighed every two days for two consecutive weeks. […]. Alzet pumps were implanted in 4 weeks old mice and MK-28 was administered at 1 mg/kg with continuous dosing for 28 days. […]

panel of 391 kinases [2] = molecular target: panel of 391 kinases (Homo sapiens, UniProt Q04912); assay: biochemical; assay type: biochemical; conditions: RON/MST1R, MK-28 1 µM, ATP 1 µM
panel of 391 kinases [3] = molecular target: panel of 391 kinases (Homo sapiens, UniProt Q96L34); assay: biochemical; assay type: biochemical; conditions: MARK4, MK-28 1 µM, ATP 1 µM
panel of 391 kinases [4] = molecular target: T1, panel of 391 kinases (Homo sapiens, UniProt Q9NR20); assay: biochemical; assay type: biochemical; conditions: DYRK4, MK-28 1 µM, ATP 1 µM
T1 sequence (Q9NR20 1-520): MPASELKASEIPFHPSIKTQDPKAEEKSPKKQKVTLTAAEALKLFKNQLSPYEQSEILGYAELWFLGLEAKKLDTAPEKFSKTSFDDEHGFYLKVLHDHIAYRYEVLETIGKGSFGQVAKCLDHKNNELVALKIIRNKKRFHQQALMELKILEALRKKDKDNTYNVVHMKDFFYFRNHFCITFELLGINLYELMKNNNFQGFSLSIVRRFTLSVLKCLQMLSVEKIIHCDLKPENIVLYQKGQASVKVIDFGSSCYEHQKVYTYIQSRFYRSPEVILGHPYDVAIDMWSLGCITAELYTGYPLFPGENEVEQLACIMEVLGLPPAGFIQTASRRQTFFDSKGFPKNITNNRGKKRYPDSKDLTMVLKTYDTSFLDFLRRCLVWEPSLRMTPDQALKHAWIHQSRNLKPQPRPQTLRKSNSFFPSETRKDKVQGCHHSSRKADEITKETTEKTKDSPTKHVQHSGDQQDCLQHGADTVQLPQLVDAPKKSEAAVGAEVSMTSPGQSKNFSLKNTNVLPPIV

panel of 391 kinases [5] = molecular target: panel of 391 kinases (Homo sapiens, UniProt P36894); assay: biochemical; assay type: biochemical; conditions: ALK3/BMPR1A, MK-28 1 µM, ATP 1 µM
panel of 391 kinases [6] = molecular target: panel of 391 kinases (Homo sapiens, UniProt P48729); assay: biochemical; assay type: biochemical; conditions: CK1a1, MK-28 1 µM, ATP 1 µM
panel of 391 kinases [7] = molecular target: panel of 391 kinases (Homo sapiens, UniProt Q9H0K1); assay: biochemical; assay type: biochemical; conditions: SIK2, MK-28 1 µM, ATP 1 µM
panel of 391 kinases [8] = molecular target: panel of 391 kinases (Homo sapiens, UniProt Q13976); assay: biochemical; assay type: biochemical; conditions: PKG1a, MK-28 1 µM, ATP 1 µM
panel of 391 kinases [9] = molecular target: panel of 391 kinases (Homo sapiens, UniProt Q7KZI7); assay: biochemical; assay type: biochemical; conditions: MARK2/PAR-1Ba, MK-28 1 µM, ATP 1 µM
panel of 391 kinases [10] = molecular target: panel of 391 kinases (Homo sapiens, UniProt P34947); assay: biochemical; assay type: biochemical; conditions: GRK5, MK-28 1 µM, ATP 1 µM
panel of 391 kinases [11] = molecular target: panel of 391 kinases (Homo sapiens, UniProt Q9BYP7); assay: biochemical; assay type: biochemical; conditions: WNK3, MK-28 1 µM, ATP 1 µM
panel of 391 kinases [12] = molecular target: panel of 391 kinases (Homo sapiens, UniProt P29376); assay: biochemical; assay type: biochemical; conditions: TYK1/LTK, MK-28 1 µM, ATP 1 µM
panel of 391 kinases [13] = molecular target: panel of 391 kinases (Homo sapiens, UniProt Q8NE63); assay: biochemical; assay type: biochemical; conditions: HIPK4, MK-28 1 µM, ATP 1 µM
panel of 391 kinases [14] = molecular target: panel of 391 kinases (Homo sapiens, UniProt Q9H792); assay: biochemical; assay type: biochemical; conditions: PEAK1, MK-28 1 µM, ATP 1 µM
panel of 391 kinases [15] = molecular target: panel of 391 kinases (Homo sapiens, UniProt Q16816); assay: biochemical; assay type: biochemical; conditions: PHKg1, MK-28 1 µM, ATP 1 µM
panel of 391 kinases [16] = molecular target: panel of 391 kinases (Homo sapiens, UniProt P15056); assay: biochemical; assay type: biochemical; conditions: BRAF, MK-28 1 µM, ATP 1 µM
panel of 391 kinases [17] = molecular target: panel of 391 kinases (Homo sapiens, UniProt Q86SG6); assay: biochemical; assay type: biochemical; conditions: NEK8, MK-28 1 µM, ATP 1 µM
[18] = read-out: % Enzyme Activity (relative to DMSO controls)

CN(/N=C\c1ccc(O)c(O)c1)c1nc(-c2ccccc2)cc(-c2ccccc2)n1 [MK-28]
weight, MK-28 vs vehicle [1]: no significant differences | % Enzyme Activity (relative to DMSO controls) (panel of 391 kinases [2]): 102.49% | remaining activity at 1 µM (panel of 391 kinases [2]; [18]): 104% | % Enzyme Activity (relative to DMSO controls) (panel of 391 kinases [3]): 96.24% | remaining activity at 1 µM (panel of 391 kinases [3]; [18]): 99.8% | % Enzyme Activity (relative to DMSO controls) (panel of 391 kinases [4]): 99.42% | remaining activity at 1 µM (panel of 391 kinases [4]; [18]): 101% | % Enzyme Activity (relative to DMSO controls) (panel of 391 kinases [5]): 98.85% | remaining activity at 1 µM (panel of 391 kinases [5]; [18]): 106% | % Enzyme Activity (relative to DMSO controls) (panel of 391 kinases [6]): 98.77% | remaining activity at 1 µM (panel of 391 kinases [6]; [18]): 99.5% | % Enzyme Activity (relative to DMSO controls) (panel of 391 kinases [7]): 93.76% | remaining activity at 1 µM (panel of 391 kinases [7]; [18]): 97.5% | % Enzyme Activity (relative to DMSO controls) (panel of 391 kinases [8]): 86.31% | remaining activity at 1 µM (panel of 391 kinases [8]; [18]): 89% | % Enzyme Activity (relative to DMSO controls) (panel of 391 kinases [9]): 98.73% | remaining activity at 1 µM (panel of 391 kinases [9]; [18]): 106% | % Enzyme Activity (relative to DMSO controls) (panel of 391 kinases [10]): 103.49% | remaining activity at 1 µM (panel of 391 kinases [10]; [18]): 104% | % Enzyme Activity (relative to DMSO controls) (panel of 391 kinases [11]): 104.23% | remaining activity at 1 µM (panel of 391 kinases [11]; [18]): 105% | % Enzyme Activity (relative to DMSO controls) (panel of 391 kinases [12]): 82.78% | remaining activity at 1 µM (panel of 391 kinases [12]; [18]): 84.2% | % Enzyme Activity (relative to DMSO controls) (panel of 391 kinases [13]): 97.91% | remaining activity at 1 µM (panel of 391 kinases [13]; [18]): 98.4% | % Enzyme Activity (relative to DMSO controls) (panel of 391 kinases [14]): 87.56% | remaining activity at 1 µM (panel of 391 kinases [14]; [18]): 88.6% | % Enzyme Activity (relative to DMSO controls) (panel of 391 kinases [15]): 89.19% | remaining activity at 1 µM (panel of 391 kinases [15]; [18]): 90.7% | % Enzyme Activity (relative to DMSO controls) (panel of 391 kinases [16]): 99.64% | remaining activity at 1 µM (panel of 391 kinases [16]; [18]): 101% | % Enzyme Activity (relative to DMSO controls) (panel of 391 kinases [17]): 101.46% | remaining activity at 1 µM (panel of 391 kinases [17]; [18]): 101%

Reference: PMC7181660, “A novel specific PERK activator reduces toxicity and extends survival in Huntington's disease models” (Scientific Reports, 2020)
